{"source": "patent US9090617B1", "about": "“Agonists of Src homology-2 containing protein tyrosine phosphatase-1 and treatment methods using the same” (National Taiwan University, priority 2011, dated 2015)", "key": {"HCC cells": {"tested_on": "HCC cells", "experiment": "Apoptosis analysis by flow cytometry (sub-G1)", "assay_type": "cell-based", "conditions": "HCC cells, 24 h", "summary_of_the_method": "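HCC cells treated with compounds, harvested, fixed in 75% ethanol and stained with 20 ug/ml propidium iodide, 30 min at 37° C in the dark. Sub-G1 population measured by flow cytometry as apoptotic fraction; mean ± SD.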"}, "p-STAT1 and p-STAT5": {"tested_on": "p-STAT1 and p-STAT5", "experiment": "Effect on p-STAT1 and p-STAT5", "assay_type": "cell-based", "conditions": "indicated doses, 24 h", "text": "(§1) To further investigate the effect of SC-49 on angiogenesis, we tested the effect of SC-49 on the activity of VEGFR1 in HUVEC cells."}, "Huh-7 tumors": {"tested_on": "Huh-7 tumors", "protocol": "Male NCr athymic nude mice (5-7 weeks of age) were obtained from the National Laboratory Animal Center (Taipei, Taiwan). All experimental procedures using these mice were performed in accordance with protocols approved by National Taiwan University. […] Controls received vehicle (Chen K F et al. Cancer Res. 2008; 68:6698-6707)."}, "VEGFR1": {"biological_target": "T1, VEGFR1 (Homo sapiens, UniProt P17948)", "T1 construct": "we tested the effect of SC-49 on the activity of VEGFR1 in HUVEC cells; endogenous in cells; host or cells: HUVEC", "T1 sequence (P17948 27-1338)": "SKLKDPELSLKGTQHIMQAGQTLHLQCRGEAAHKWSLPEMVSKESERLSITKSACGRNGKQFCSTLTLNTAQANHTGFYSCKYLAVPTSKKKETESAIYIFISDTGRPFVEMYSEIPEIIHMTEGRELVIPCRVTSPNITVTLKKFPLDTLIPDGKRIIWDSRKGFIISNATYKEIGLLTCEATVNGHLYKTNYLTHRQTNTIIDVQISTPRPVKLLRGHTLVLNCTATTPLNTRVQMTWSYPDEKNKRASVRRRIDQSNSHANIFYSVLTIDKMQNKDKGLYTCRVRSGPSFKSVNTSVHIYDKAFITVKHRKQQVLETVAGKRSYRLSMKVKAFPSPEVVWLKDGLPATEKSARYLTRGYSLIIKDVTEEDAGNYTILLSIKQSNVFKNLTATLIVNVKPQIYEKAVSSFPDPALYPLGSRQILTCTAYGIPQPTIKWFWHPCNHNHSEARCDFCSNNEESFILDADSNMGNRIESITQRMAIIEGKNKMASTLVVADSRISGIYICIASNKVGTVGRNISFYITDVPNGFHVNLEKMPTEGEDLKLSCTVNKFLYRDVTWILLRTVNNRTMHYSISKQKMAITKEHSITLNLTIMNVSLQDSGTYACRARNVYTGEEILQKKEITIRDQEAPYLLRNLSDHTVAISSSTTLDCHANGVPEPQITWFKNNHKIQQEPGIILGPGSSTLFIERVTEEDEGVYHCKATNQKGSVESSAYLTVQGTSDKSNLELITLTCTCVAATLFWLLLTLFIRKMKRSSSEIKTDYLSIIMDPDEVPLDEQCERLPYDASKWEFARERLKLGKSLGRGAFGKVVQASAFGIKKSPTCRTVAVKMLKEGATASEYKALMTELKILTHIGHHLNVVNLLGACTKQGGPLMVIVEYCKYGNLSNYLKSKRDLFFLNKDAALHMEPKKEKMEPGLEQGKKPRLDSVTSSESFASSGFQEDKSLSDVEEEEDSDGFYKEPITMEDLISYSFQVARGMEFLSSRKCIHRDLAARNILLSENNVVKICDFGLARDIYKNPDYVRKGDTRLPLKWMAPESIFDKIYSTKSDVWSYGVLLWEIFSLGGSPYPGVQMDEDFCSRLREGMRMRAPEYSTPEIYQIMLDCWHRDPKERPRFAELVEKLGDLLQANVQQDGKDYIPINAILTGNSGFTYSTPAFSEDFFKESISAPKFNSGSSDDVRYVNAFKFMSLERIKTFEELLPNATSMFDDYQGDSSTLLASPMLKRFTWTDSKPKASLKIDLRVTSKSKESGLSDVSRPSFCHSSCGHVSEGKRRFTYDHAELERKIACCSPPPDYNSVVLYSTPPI", "experiment": "VEGFR1 activity in HUVEC cells", "assay_type": "cell-based", "conditions": "24 h", "text": "as §1"}, "SHP-1 [1]": {"biological_target": "T2, SHP-1 (Homo sapiens, UniProt P29350)", "T2 sequence (P29350 whole entry)": "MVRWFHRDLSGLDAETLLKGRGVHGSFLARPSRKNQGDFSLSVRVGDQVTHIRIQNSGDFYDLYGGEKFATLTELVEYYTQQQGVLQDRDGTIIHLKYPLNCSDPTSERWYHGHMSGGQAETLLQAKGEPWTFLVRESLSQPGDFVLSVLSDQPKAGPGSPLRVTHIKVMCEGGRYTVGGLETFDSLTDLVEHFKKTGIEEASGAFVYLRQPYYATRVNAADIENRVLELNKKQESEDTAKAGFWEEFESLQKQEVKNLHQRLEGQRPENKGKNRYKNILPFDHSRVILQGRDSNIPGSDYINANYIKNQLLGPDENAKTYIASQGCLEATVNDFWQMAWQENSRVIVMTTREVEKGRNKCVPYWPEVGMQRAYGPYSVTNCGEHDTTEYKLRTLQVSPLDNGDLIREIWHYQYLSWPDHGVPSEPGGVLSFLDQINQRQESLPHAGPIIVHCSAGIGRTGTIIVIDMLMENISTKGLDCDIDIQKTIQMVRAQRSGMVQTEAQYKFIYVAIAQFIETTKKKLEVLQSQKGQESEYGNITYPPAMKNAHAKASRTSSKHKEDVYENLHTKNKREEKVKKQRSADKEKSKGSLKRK", "experiment": "Phosphatase activity of SHP-1 immunoprecipitated from PLC5 cells, incubated with compound in vitro", "assay_type": "biochemical", "design": "PLC5 protein extract was incubated with anti-SHP-1 antibody in immunoprecipitation buffer overnight; endogenous in cells; host or cells: PLC5 (PLC/PRF/5)", "conditions": "SHP-1-containing PLC5 extract, 10 or 100 nmol/L, 30 min, 4° C.", "protocol": "PLC5 protein extract was incubated with anti-SHP-1 antibody in immunoprecipitation buffer overnight. Protein G Sepharose 4 Fast flow (GE Healthcare Bio-Science) was added to each sample, followed by incubation for 3 hours at 4° C. with rotation. […] RediPlate 96 EnzChek Tyrosine Phosphatase Assay kit (R-22067) was used for SHP-1 activity assay (Molecular Probes)."}, "[2]": {"tested_on": "p-STAT3, cyclin D1, survivin, Mc1-1", "experiment": "Western blot of STAT3-related proteins in HCC cells", "assay_type": "cell-based", "conditions": "HCC cells, 24 h", "protocol": "Cells were treated with various compounds at 5 and 10 μM for 24 h. Cell lysates were analyzed by western blot.\nHCC cells treated with SC-43 (10 μM for 24 h) were collected with RIPA lysis buffer. Antibodies for immunoblotting such as cyclin D1 was purchased from Santa Cruz Biotechnology. Other antibodies such as survivin, phospho-STAT3 (Tyr705), STAT3, Mc1-1, SOCS1, and SOCS3 were from Cell Signaling."}, "Huh-7 xenograft tumor": {"tested_on": "Huh-7 xenograft tumor", "experiment": "Huh-7 xenograft with SC-59 or sorafenib and radiation", "assay_type": "in vivo, mice", "protocol": "(A) The effects of SC-59 and radiation on tumor growth. Each mouse was inoculated subcutaneously in the right leg with […] Huh-7 cells suspended in Matrigel. When the tumor reached a volume of 400-600 mm3, mice received vehicle, 5 Gy radiation (one fraction per day) for 4 days, or 10 mg/kg SC-59 p.o. once daily, or a combination for the duration of the study. The data points indicate the mean values (n=6) and the bars indicate the standard error. There were significant differences between the combined treatment group and the vehicle control group (*, P<0.05, **, P<0.01). (B) Left, the expression of P-STAT3 in the Huh-7 tumors was analyzed by western blot. Right, quantified data for p-STAT3 to STAT3. (C) The activity of SHP-1 in Huh-7 tumors. Values are means±SD, *, P<0.05. (D) Body weight of mice after SC-59 and RT treatment. […] The data points indicate the mean values (n=6) and the bars indicate the standard error. […] (H) Body weight of mice treated with vehicle, RT, sorafenib, and combination.\nTo further elucidate the molecular events responsible for this synergistic effect, we examined the expression level of p-STAT3 in the tumor extract."}, "SHP-1 [3]": {"biological_target": "T2, SHP-1", "experiment": "SHP-1 activity in treated HCC cells (tyrosine phosphatase assay kit)", "assay_type": "cell-based", "design": "endogenous in cells", "conditions": "SK-Hep1 cells", "text": "The RediPlate 96 EnzChek® Tyrosine Phosphatase Assay Kit (R-22067) was used for SHP-1 activity assay (Molecular Probes, Carlsbad, Calif.). The Raf-1 kinase cascade assay kit (Upstate-Millipore, Billerica, Mass.) was used to examine the Raf-1 kinase activity. The JAK2 kinase activity kit was purchased from Reaction Biology Corp. (Malvern, Pa.)."}}, "data": [{"smiles": "N#Cc1ccc(Oc2ccc(CNC(=O)Nc3ccc(Cl)c(C(F)(F)F)c3)cc2)cc1", "note": "[SC-49, 1-(4-chloro-3-(trifluoromethyl)phenyl)-3-(4-(4-cyanophenoxyl)benzyl)urea]", "values": [{"measurement": "apoptosis (sub-G1)", "setting": "HCC cells", "result": "induced more apoptotic cell death than sorafenib"}, {"measurement": "p-STAT1 and p-STAT5", "setting": "p-STAT1 and p-STAT5", "result": "down-regulated both p-STAT1 and p-STAT5 in a dose dependent manner"}, {"measurement": "Huh-7 tumor size / growth versus control", "setting": "Huh-7 tumors; 10 mg/kg/day orally", "result": "significantly reduced the growth of the Huh-7 tumour"}, {"measurement": "body weight or toxicity", "setting": "Huh-7 tumors; mouse, in vivo, po, 10 mg/kg/day", "result": "stable body weights"}, {"measurement": "SHP-1 activity in Huh-7 tumors", "setting": "Huh-7 tumors; tumor extract", "result": "enhanced the activity of SHP-1 in Huh-7 tumours"}, {"measurement": "p-STAT3 in Huh-7 tumors", "setting": "Huh-7 tumors; tumor extract, Western blot", "result": "down-regulated p-STAT3 in Huh-7 tumours"}, {"measurement": "activity of VEGFR1", "setting": "VEGFR1", "result": "did not affect the activity of VEGFR1 in HUVEC cells"}, {"measurement": "phosphatase activity of SHP-1 in vitro", "setting": "SHP-1 [1]", "result": "increase phosphatase activity of SHP-1 in vitro"}]}, {"smiles": "Cc1ccc(NC(=O)Nc2ccc(Cl)c(C(F)(F)F)c2)cc1Oc1ccc(C#N)cc1", "note": "[SC-59, 1-(4-chloro-3-(trifluoromethyl)phenyl)-3-(3-(4-cyanophenoxy)-4-methylphenyl) urea]", "values": [{"measurement": "p-STAT3 and STAT3-related proteins (Western blot)", "setting": "[2]", "result": "downregulated phospho-STAT3 (p-STAT3) at tyrosine 705 along with its downstream molecules"}, {"measurement": "tumor growth with radiotherapy combination", "setting": "Huh-7 xenograft tumor; 10 mg/kg p.o. once daily plus 5 Gy radiation for 4 days", "result": "displayed significant tumor growth inhibition compared to radiotherapy or SC-59 alone"}, {"measurement": "SHP-1 phosphatase activity in tumor samples", "setting": "Huh-7 xenograft tumor; Huh-7 tumors, 10 mg/kg p.o.", "result": "induction of SHP-1 phosphatase activity was observed"}, {"measurement": "p-STAT3 in treated tumor samples", "setting": "Huh-7 xenograft tumor; Huh-7 tumors, 10 mg/kg p.o.", "result": "resulted in clear inhibition of p-STAT3"}, {"measurement": "body weight", "setting": "Huh-7 xenograft tumor; Huh-7 xenograft, 10 mg/kg p.o.", "result": "no significant difference in body weight"}, {"measurement": "phosphatase activity of SHP-1 in cells", "setting": "SHP-1 [3]", "result": "significantly increased the phosphatase activity of SHP-1 in SK-Hep1 cells"}]}]}
